Results on seven compounds are retold here after ChEMBL document CHEMBL5465560, “Selectivity Literature for EUbOPEN Chemogenomic Library” (2024).

For assay [1], the target named is Tyrosine-protein kinase JAK2 (Homo sapiens, UniProt O60674). As to the kind of experiment: Selectivity interaction (Ambit KINOMEscan and KiNATiv profiling in Jurkat cells) EUB0000090b JAK2. The format is cell-based. The following applies: at 1 µM.
Assay [2] deals with Serine/threonine-protein kinase 32B (Homo sapiens) (UniProt Q9NY57). As to the kind of experiment: Selectivity interaction (KinomeScan (DiscoverX)) EUB0001049a STK32B. As to conditions: at 1 µM.
Chain of Serine/threonine-protein kinase 32B (Homo sapiens) (Q9NY57 whole entry): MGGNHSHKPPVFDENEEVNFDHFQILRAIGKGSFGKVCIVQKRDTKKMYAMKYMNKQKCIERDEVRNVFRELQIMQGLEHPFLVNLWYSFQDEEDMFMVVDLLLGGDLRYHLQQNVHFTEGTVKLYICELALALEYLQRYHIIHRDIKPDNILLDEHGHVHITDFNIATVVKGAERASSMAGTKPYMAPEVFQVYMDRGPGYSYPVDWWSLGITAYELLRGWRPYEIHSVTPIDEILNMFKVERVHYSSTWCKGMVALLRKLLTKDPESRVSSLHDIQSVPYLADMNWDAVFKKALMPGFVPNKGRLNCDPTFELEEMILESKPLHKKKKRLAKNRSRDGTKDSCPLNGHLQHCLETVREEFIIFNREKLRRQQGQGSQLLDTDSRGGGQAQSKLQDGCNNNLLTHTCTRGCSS
Assay [3] has as its target T1, Protein kinase C epsilon type (Homo sapiens) (UniProt Q02156).
T1 sequence (whole entry): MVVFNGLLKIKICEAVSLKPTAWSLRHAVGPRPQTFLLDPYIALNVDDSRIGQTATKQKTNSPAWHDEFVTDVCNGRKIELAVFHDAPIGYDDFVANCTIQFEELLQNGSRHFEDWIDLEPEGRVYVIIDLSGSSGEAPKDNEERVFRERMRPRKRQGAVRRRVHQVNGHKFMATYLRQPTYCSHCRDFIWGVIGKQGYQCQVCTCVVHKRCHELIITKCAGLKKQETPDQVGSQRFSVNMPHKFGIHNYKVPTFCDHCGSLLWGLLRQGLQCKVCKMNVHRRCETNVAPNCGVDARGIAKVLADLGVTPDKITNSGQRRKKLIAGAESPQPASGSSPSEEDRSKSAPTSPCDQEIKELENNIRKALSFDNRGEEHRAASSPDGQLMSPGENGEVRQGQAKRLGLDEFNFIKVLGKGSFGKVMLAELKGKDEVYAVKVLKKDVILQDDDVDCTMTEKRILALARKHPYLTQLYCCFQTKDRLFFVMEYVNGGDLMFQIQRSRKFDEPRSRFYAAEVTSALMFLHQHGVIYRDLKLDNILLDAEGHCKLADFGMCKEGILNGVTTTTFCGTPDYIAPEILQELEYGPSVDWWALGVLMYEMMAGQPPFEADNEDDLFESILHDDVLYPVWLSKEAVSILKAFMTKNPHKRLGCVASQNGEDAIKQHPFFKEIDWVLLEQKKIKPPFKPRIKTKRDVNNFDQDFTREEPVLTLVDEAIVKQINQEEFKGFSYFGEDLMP
As to the kind of experiment: Selectivity interaction (KinomeScan (DiscoverX)) EUB0000655a PRKCE. As to conditions: at 10 µM.

Assay [4] addresses Phosphatidylinositol 4-phosphate 3-kinase C2 domain-containing subunit beta (Homo sapiens) (UniProt O00750). As to the kind of experiment: Selectivity interaction (Adapta Assay) EUB0001632a PIK3C2B. The following applies: at 10 µM.
Assay [5] deals with T2, Tyrosine-protein kinase Tec (Homo sapiens) (UniProt P42680).
T2 sequence (whole entry): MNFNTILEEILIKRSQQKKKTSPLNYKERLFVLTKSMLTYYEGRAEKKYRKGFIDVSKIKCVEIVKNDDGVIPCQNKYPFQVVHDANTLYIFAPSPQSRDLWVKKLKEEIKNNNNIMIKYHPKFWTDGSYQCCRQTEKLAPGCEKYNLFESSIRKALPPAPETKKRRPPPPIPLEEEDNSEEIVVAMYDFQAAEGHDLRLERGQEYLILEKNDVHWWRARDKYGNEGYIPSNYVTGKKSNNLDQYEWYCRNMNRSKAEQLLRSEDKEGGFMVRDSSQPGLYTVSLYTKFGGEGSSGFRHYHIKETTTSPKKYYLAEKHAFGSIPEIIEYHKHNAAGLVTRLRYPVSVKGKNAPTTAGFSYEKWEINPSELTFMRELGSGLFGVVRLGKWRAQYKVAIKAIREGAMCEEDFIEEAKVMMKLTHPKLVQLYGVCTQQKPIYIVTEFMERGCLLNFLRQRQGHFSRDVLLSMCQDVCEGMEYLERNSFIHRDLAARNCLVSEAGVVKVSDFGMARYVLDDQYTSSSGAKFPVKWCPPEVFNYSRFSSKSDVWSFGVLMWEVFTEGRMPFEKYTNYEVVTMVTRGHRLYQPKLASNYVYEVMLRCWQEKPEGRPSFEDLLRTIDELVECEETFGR
As to the kind of experiment: Selectivity interaction (ActivX KiNativ screen (kinase selectivity in THP-1 cell lysates)) EUB0000639a TEC. The format is subcellular. As to conditions: lysate.

For assay [6], the target named is T3, Serine/threonine-protein kinase RIO1 (Homo sapiens) (UniProt Q9BRS2).
T3 sequence (whole entry): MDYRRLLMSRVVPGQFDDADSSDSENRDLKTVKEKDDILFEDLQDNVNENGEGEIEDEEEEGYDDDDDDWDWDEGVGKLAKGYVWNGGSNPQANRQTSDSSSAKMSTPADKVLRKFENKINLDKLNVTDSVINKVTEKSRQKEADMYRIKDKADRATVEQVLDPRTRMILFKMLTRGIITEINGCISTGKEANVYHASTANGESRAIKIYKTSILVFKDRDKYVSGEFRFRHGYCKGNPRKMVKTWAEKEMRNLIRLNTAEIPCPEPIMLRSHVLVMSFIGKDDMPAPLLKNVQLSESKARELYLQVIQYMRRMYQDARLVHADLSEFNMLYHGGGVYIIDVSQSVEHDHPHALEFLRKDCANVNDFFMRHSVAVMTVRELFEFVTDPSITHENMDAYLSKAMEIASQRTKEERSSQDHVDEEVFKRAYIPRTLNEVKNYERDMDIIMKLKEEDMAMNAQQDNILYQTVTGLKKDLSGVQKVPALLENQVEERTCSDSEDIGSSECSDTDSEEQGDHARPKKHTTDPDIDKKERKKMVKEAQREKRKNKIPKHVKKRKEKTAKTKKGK
As to the kind of experiment: Selectivity interaction (KinomeScan (DiscoverX)) EUB0000229b RIOK1. The following applies: at 10 µM.

Assay [7] concerns the target Serine/threonine-protein kinase Nek6 (Homo sapiens) (UniProt Q9HC98). The following applies: at 10 µM.

Chain of Phosphatidylinositol 4-phosphate 3-kinase C2 domain-containing subunit beta (Homo sapiens) (O00750 whole entry, the tested form may be a part): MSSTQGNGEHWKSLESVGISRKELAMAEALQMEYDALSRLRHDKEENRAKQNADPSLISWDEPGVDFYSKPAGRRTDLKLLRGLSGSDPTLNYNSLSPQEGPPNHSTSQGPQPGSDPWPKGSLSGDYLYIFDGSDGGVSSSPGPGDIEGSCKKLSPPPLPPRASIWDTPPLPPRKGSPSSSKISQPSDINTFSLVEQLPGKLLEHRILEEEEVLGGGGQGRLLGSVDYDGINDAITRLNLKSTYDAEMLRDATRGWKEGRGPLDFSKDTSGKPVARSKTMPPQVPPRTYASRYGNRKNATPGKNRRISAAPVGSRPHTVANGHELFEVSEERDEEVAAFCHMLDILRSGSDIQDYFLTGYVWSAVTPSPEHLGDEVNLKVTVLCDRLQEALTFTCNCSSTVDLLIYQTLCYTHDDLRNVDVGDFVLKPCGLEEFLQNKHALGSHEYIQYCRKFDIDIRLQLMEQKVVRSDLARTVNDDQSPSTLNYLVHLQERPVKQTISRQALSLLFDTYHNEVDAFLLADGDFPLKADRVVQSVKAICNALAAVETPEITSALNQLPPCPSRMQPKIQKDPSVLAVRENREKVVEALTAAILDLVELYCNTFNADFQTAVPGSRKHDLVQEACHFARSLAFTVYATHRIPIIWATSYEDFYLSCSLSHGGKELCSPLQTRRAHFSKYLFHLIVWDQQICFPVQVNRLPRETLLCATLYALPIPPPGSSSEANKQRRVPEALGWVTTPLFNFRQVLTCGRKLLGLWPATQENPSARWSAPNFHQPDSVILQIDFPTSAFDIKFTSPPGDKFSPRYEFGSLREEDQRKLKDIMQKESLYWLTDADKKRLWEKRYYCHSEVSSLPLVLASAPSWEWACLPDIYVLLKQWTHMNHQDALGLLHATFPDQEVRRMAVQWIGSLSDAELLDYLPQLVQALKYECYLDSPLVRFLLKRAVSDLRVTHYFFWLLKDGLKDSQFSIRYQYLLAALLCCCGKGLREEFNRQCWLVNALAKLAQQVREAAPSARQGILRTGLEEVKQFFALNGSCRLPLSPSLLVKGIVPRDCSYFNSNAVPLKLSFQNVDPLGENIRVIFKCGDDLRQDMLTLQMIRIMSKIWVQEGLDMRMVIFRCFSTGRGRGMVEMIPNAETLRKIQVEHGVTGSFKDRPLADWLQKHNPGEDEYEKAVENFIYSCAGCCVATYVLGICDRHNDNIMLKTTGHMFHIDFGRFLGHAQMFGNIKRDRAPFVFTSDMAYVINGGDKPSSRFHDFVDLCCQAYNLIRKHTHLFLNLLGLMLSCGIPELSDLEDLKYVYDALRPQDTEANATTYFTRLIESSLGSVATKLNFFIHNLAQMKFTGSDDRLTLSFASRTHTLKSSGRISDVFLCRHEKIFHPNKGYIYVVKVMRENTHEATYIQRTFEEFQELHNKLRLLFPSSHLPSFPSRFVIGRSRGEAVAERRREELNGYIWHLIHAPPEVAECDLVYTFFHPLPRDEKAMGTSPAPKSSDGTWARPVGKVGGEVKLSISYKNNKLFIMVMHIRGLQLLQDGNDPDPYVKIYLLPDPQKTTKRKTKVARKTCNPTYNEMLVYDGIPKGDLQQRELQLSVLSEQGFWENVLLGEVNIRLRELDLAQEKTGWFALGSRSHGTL
Chain of Tyrosine-protein kinase JAK2 (O60674 whole entry): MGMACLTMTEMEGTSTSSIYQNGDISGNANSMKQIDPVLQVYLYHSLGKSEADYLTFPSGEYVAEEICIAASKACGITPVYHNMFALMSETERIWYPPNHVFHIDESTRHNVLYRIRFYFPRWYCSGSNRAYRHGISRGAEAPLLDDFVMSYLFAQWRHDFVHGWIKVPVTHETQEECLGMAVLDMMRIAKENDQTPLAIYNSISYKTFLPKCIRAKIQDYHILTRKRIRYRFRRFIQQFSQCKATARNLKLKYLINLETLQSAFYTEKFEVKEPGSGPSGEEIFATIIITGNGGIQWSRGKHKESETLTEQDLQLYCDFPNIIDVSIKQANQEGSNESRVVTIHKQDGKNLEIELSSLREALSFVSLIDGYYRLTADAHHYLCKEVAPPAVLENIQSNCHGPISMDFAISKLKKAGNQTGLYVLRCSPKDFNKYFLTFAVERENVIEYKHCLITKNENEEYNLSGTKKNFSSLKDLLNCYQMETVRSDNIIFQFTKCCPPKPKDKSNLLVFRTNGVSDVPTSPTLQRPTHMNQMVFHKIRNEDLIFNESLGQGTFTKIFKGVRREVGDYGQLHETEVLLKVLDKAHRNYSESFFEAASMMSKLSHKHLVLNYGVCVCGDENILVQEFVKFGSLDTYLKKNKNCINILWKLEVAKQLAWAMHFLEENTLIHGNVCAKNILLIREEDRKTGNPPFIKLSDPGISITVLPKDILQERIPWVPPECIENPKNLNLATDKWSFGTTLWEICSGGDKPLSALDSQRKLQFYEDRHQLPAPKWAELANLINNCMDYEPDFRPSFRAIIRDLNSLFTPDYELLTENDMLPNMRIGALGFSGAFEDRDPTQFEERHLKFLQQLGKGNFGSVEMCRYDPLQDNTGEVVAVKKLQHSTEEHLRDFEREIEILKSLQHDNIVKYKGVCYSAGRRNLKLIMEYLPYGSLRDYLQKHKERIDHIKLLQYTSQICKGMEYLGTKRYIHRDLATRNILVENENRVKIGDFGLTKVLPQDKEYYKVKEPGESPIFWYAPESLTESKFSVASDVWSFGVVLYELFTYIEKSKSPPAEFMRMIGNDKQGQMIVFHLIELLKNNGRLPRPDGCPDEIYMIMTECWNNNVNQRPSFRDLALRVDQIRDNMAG
Chain of Serine/threonine-protein kinase Nek6 (Homo sapiens) (Q9HC98 whole entry): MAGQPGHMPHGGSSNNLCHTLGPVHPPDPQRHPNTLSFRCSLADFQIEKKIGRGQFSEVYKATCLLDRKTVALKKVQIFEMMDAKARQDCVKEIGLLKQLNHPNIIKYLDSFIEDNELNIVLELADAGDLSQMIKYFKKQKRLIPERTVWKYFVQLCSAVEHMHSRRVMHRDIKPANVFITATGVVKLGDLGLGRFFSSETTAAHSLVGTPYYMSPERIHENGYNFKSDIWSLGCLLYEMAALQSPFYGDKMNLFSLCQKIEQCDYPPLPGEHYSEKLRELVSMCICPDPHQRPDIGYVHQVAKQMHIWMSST

Regarding `CN(C)C/C=C/C(=O)Nc1ccc(C(=O)N2CCCC(Nc3ncc(Cl)c(-c4c[nH]c5ccccc45)n3)C2)cc1` (stereo unspecified), the % of control in assay [1] turned out to be 89%.

Compound `COc1cc(Nc2nc(C)cc(-c3cnn4nc(OC)ccc34)n2)cc(C(F)(F)F)c1` displayed a % of control in assay [2] of 100%. The compound `CN(C)CCOc1ccc(-c2nc(-c3ccncc3)c(-c3ccc4c(c3)CC/C4=N\O)[nH]2)cc1` had a % of control in assay [3] of 100%. Turning to `Cn1cc(-n2cnc3c(NCc4nc5cc(Cl)c(Cl)cc5[nH]4)nc(N4CCOCC4)nc32)cn1`, the % of inhibition in assay [4] is 64.1%. `CC[C@@H]1[C@H](F)C(=O)N[C@@H]1COc1nccc2cc(C(N)=O)c(OC)cc12` [ZIMLOVISERTIB]: the % of inhibition in assay [5] (at 0.01 µM) was 6%; in assay [5] (at 0.04 µM), 0%; in assay [5] (at 0.2 µM) it was -2.1%; in assay [5] (at 1 µM), -3.6%; in assay [5] (at 5 µM), -0.9%.

Compound `COc1cc(N(C)c2ccnc3ccc(C(F)(F)F)cc23)cc(OC)c1OC` registered a % binding in assay [6] of 95%.

For `COCC(=O)NC/C=C/c1ccc2ncnc(Nc3ccc(Oc4ccc(C)nc4)c(C)c3)c2c1` [CP-724714], the % of control in assay [7] worked out at 100%.
